Data from patent publication US11173170B2, “Prebiotic composition and its methods of production” (Optibiotix Limited, priority 2014, dated 2021).

Key:
Experiment in all cases: Anaerobic cultures, gut bacterial groups by fluorescent in situ hybridisation at 24 hours
Type in all cases: cell-based
Clostridia = conditions: for Clostridia count, 24: 24 hours, anaerobic culture, inoculum 7.55; for Clostridia, 24 hr % change: 24 hr vs inoculum
Procedure: (§1) In these experiments, anaerobic cultures were tested to evaluate the in vitro utilisation of a novel Lactobacillus reuteri galactooligosaccharide by monitoring the populations of gut bacterial groups at 24 hours using fluorescent in situ hybridisation, and short-chain fatty acid (SCFA). Fructooligosaccharides (FOS), melibiose and raffinose were used as reference carbohydrates.

Eubacteria = test system: Eubacteria
Procedure: as §1

Lactobacilli = test system: Lactobacilli
Procedure: as §1

Bifidobacteria = test system: Bifidobacteria
Procedure: as §1

Total count = test system: Total count
Procedure: as §1

Bacteroides = test system: Bacteroides
Procedure: as §1

E. coli = test system: E. coli
Procedure: as §1

SMILES	Clostridia count, 24 (Clostridia)	Clostridia, 24 hr % change (Clostridia) [%]	Eubacteria count, 24 (Eubacteria; 24 hours, anaerobic culture, inoculum 8.06)	Eubacteria, 24 hr % change (Eubacteria; 24 hr vs inoculum) [%]	Lactobacilli count, 24 (Lactobacilli; 24 hours, anaerobic culture, inoculum 7.15)	Lactobacilli, 24 hr % change (Lactobacilli; 24 hr vs inoculum) [%]	Bifidobacteria count, 24 (Bifidobacteria; 24 hours, anaerobic culture, inoculum 6.85)	Bifidobacteria, 24 hr % change (Bifidobacteria; 24 hr vs inoculum) [%]	Total count, 24 (Total count; 24 hours, anaerobic culture, inoculum 8.84)	Total count, 24 hr % change (Total count; 24 hr vs inoculum) [%]	Bacteroides count, 24 (Bacteroides; 24 hours, anaerobic culture, inoculum 7.98)	Bacteroides, 24 hr % change (Bacteroides; 24 hr vs inoculum) [%]	E. coli count, 24 (E. coli; 24 hours, anaerobic culture, inoculum 8.14)	E. coli, 24 hr % change (E. coli; 24 hr vs inoculum) [%]
OC[C@H]1O[C@H](OCC2O[C@@H](O)[C@H](O)[C@@H](O)[C@@H]2O)[C@H](O)[C@@H](O)[C@H]1O (stereo partly shown) [Melibiose, melibiose]	7.65	101	7.84	97	7.43	104	7.33	107	9.14	103	7.9	99	7.66	94
OC[C@H]1O[C@H](OC[C@H]2O[C@H](O[C@]3(CO)O[C@H](CO)[C@@H](O)[C@@H]3O)[C@H](O)[C@@H](O)[C@@H]2O)[C@H](O)[C@@H](O)[C@H]1O [Raffinose, raffinose]	7.81	103	–	–	–	–	–	–	–	–	–	–	–	–
